Experimental data taken from ChEMBL document CHEMBL1687791, “Identification and characterization of four azole-resistant erg3 mutants of Candida albicans” (2010).
Converted amounts (≈) assume the structure as drawn.

Legend:
Format in all cases: functional
Candida albicans [1] = experiment: Antifungal activity against Candida albicans isolate 6 assessed as ergosterol content in total sterol composition at 0.5 times MIC by GC-MS analysis
Candida albicans [2] = experiment: Antifungal activity against Candida albicans isolate 12 harboring ERG3 W332R mutant gene assessed as ergosterol content in total sterol composition at 0.5 times MIC by GC-MS analysis
Candida albicans [3] = experiment: Antifungal activity against Candida albicans isolate 488 harboring ERG3 H243N, T330A, A351V and ERG11 D225G, E266D, E391G, V488I mutant genes assessed as ergosterol content in total sterol composition at 0.5 times MIC by GC-MS analysis
Candida albicans [4] = experiment: Antifungal activity against Candida albicans isolate 490 harboring ERG3 D147G, T330A, A351V and ERG11 F72S, T229A, E266D, N440S, V488I, R523G mutant genes assessed as ergosterol content in total sterol composition at 0.5 times MIC by GC-MS analysis
Candida albicans [5] = experiment: Antifungal activity against Candida albicans isolate 12 harboring ERG3 W332R mutant gene assessed as ergosta 7,22-dienol content in total sterol composition at 0.5 times MIC by GC-MS analysis
Candida albicans [6] = experiment: Antifungal activity against Candida albicans isolate 177 assessed as 14alpha-methyl fecosterol content in total sterol composition at 0.5 times MIC by GC-MS analysis
Candida albicans [7] = experiment: Antifungal activity against Candida albicans isolate 488 harboring ERG3 H243N, T330A, A351V and ERG11 D225G, E266D, E391G, V488I mutant genes assessed as 14alpha-methyl fecosterol content in total sterol composition at 0.5 times MIC by GC-MS analysis
Candida albicans [8] = experiment: Antifungal activity against Candida albicans isolate 490 harboring ERG3 D147G, T330A, A351V and ERG11 F72S, T229A, E266D, N440S, V488I, R523G mutant genes assessed as 14alpha-methyl fecosterol content in total sterol composition at 0.5 times MIC by GC-MS analysis
Candida albicans [9] = experiment: Antifungal activity against Candida albicans isolate 1008 harboring ERG3 K97E, L193P, V237A, A351V, A353T and ERG11 E266D mutant genes assessed as 14alpha-methyl fecosterol content in total sterol composition at 0.5 times MIC by GC-MS analysis
Candida albicans [10] = experiment: Antifungal activity against Candida albicans isolate 177 assessed as 14alpha-methylergosta-8,24(28)-dien-3beta,6alpha-diol content in total sterol composition at 0.5 times MIC by GC-MS analysis
Candida albicans [11] = experiment: Antifungal activity against Candida albicans isolate 488 harboring ERG3 H243N, T330A, A351V and ERG11 D225G, E266D, E391G, V488I mutant genes assessed as 14alpha-methylergosta-8,24(28)-dien-3beta,6alpha-diol content in total sterol composition at 0.5 times MIC by GC-MS analysis
Candida albicans [12] = experiment: Antifungal activity against Candida albicans isolate 490 harboring ERG3 D147G, T330A, A351V and ERG11 F72S, T229A, E266D, N440S, V488I, R523G mutant genes assessed as 14alpha-methylergosta-8,24(28)-dien-3beta,6alpha-diol content in total sterol composition at 0.5 times MIC by GC-MS analysis
Candida albicans [13] = experiment: Antifungal activity against Candida albicans isolate 14 assessed as lanosterol/obtusifoliol content in total sterol composition at 0.5 times MIC by GC-MS analysis
Candida albicans [14] = experiment: Antifungal activity against Candida albicans isolate 490 harboring ERG3 D147G, T330A, A351V and ERG11 F72S, T229A, E266D, N440S, V488I, R523G mutant genes assessed as lanosterol/obtusifoliol content in total sterol composition at 0.5 times MIC by GC-MS analysis
Candida albicans [15] = experiment: Antifungal activity against Candida albicans isolate 1008 harboring ERG3 K97E, L193P, V237A, A351V, A353T and ERG11 E266D mutant genes assessed as lanosterol/obtusifoliol content in total sterol composition at 0.5 times MIC by GC-MS analysis
Candida albicans [16] = experiment: Antifungal activity against Candida albicans isolate 6 assessed as eburicol content in total sterol composition at 0.5 times MIC by GC-MS analysis
Candida albicans [17] = experiment: Antifungal activity against Candida albicans isolate 177 assessed as eburicol content in total sterol composition at 0.5 times MIC by GC-MS analysis
Candida albicans [18] = experiment: Antifungal activity against Candida albicans isolate 12 harboring ERG3 W332R mutant gene assessed as eburicol content in total sterol composition at 0.5 times MIC by GC-MS analysis
Candida albicans [19] = experiment: Antifungal activity against Candida albicans isolate 488 harboring ERG3 H243N, T330A, A351V and ERG11 D225G, E266D, E391G, V488I mutant genes assessed as eburicol content in total sterol composition at 0.5 times MIC by GC-MS analysis
Candida albicans [20] = experiment: Antifungal activity against Candida albicans isolate 1008 harboring ERG3 K97E, L193P, V237A, A351V, A353T and ERG11 E266D mutant genes assessed as eburicol content in total sterol composition at 0.5 times MIC by GC-MS analysis
Candida albicans [21] = experiment: Antifungal activity against Candida albicans isolate 6 by broth microdilution method
Candida albicans [22] = experiment: Antifungal activity against Candida albicans isolate 14 by broth microdilution method
Candida albicans [23] = experiment: Antifungal activity against Candida albicans isolate 177 by broth dilution method
Candida albicans [24] = experiment: Antifungal activity against Candida albicans isolate 12 harboring ERG3 W332R mutant gene by broth microdilution method
Candida albicans [25] = experiment: Antifungal activity against Candida albicans isolate 490 harboring ERG3 D147G, T330A, A351V and ERG11 F72S, T229A, E266D, N440S, V488I, R523G mutant genes by broth microdilution method
Candida albicans [26] = experiment: Antifungal activity against Candida albicans isolate 1008 harboring ERG3 K97E, L193P, V237A, A351V, A353T and ERG11 E266D mutant genes by broth microdilution method
Candida albicans [27] = experiment: Antifungal activity against Candida albicans isolate 6 by broth microdilution method in presence of 10 uM drug efflux inhibitor FK506
Candida albicans [28] = experiment: Antifungal activity against Candida albicans isolate 12 harboring ERG3 W332R mutant gene by broth microdilution method in presence of 10 uM drug efflux inhibitor FK506
Candida albicans [29] = experiment: Antifungal activity against Candida albicans isolate 490 harboring ERG3 D147G, T330A, A351V and ERG11 F72S, T229A, E266D, N440S, V488I, R523G mutant genes by broth microdilution method in presence of 10 uM drug efflux inhibitor FK506
Candida albicans [30] = experiment: Antifungal activity against Candida albicans isolate 1008 harboring ERG3 K97E, L193P, V237A, A351V, A353T and ERG11 E266D mutant genes by broth microdilution method in presence of 10 uM drug efflux inhibitor FK506

In the case of OC(Cn1cncn1)(Cn1cncn1)c1ccc(F)cc1F [FLUCONAZOLE], the Activity (Candida albicans [1]) is reported as 74.5%, the Activity (Candida albicans [2]) is reported as 2.6% and the Activity (Candida albicans [3]) is reported as 7.2%. The Activity (Candida albicans [4]) was 3.5%, the Activity (Candida albicans [5]) was 1.7% and the Activity (Candida albicans [6]) was 2%. It also gave an Activity (Candida albicans [7]) of 55.6%, an Activity (Candida albicans [8]) of 69.2% and an Activity (Candida albicans [9]) of 74%. For the same molecule, the Activity (Candida albicans [10]) was 6.5%, the Activity (Candida albicans [11]) was 14.3% and the Activity (Candida albicans [12]) was 13.7%. It also gave an Activity (Candida albicans [13]) of 10.6%, an Activity (Candida albicans [14]) of 13.7% and an Activity (Candida albicans [15]) of 14.4%. It also gave an Activity (Candida albicans [16]) of 5.4%, an Activity (Candida albicans [17]) of 4.9% and an Activity (Candida albicans [18]) of 11.6%. For the same molecule, the Activity (Candida albicans [19]) was 7.7%, the Activity (Candida albicans [20]) was 9.8% and the MIC (Candida albicans [21]) was 256 µg/mL (≈ 836 µM). The MIC (Candida albicans [22]) was 1 µg/mL (≈ 3.27 µM), the MIC (Candida albicans [23]) was 256 µg/mL (≈ 836 µM) and the MIC (Candida albicans [24]) was > 256 µg/mL. The MIC (Candida albicans [25]) was > 256 µg/mL, the MIC (Candida albicans [26]) was > 256 µg/mL and the MIC (Candida albicans [27]) was 1 µg/mL. The MIC (Candida albicans [28]) was > 256 µg/mL, the MIC (Candida albicans [29]) was 2 µg/mL and the MIC (Candida albicans [30]) was > 256 µg/mL.
